In patent US8420692B1, “Heterocyclic and carbonate derivatives of NDGA and their use as new anti-HIV and anti-cancer agents” (The Johns Hopkins University, priority 2006, dated 2013):
Where a name gives a salt, the structure may show the parent alone.

Tests used:
[1] = test system: HIV Tat-regulated transactivation; assay: cells; assay type: cell-based; settings: for Inhibition (%) of HIV Tat-regulated Transactivation in COS Cells: average of three experiments
Description: The COS cells were co-transfected with a Tat-producing plasmid and a plasmid containing the HIV LTR linked to the SeAP reporter gene. Transfected cells were treated with various concentrations of 5b P4N. After 48 h, aliquots of media were removed and analysis of SeAP activity was performed. The percent inhibition of SeAP activity by 5b P4N ? was calculated in comparison with the percent of growth inhibition of untransfected COS cells by P4N ?
The medium used for dilution of compounds and maintenance of cultures during the assay was the same as described above. Cultures were maintained in disposable tissue culture labware at 37° C. in a humidified atmosphere of CO2 (5.0%) in air. Compounds were dissolved as stock solutions in water or dimethyl sulfoxide (DMSO) at the concentration of 10 mM. The stock solutions were diluted with H2O (5a-d) or DMSO (6a,b and 7) and dilute by medium to the desired concentration by a 30-s vortex just before addition into the cell culture. Triplicate cell samples were seeded at density of ˜1.5×10^4 cell per well in Libro 24-well flat-bottom culture dishes (17-mm diameter), which were incubated for 24 h until they reached 50% confluence. The cells were cotransfected by the calcium phosphate procedure with DNA from plasmids pBC12/CMV/t2 (coding for Tat function, 0.20 μg/well) and pBC12/HIV/SeAP (0.40 μg/well). Cells and DNAs were kept in contact for 6.0 h; then the medium was aspirated and replaced by 500 μL of medium containing the test compound. The compound-treated cells were then incubated for additional 48 h. At the end of incubation, an aliquot of cell culture medium was removed and SeAP activities were analyzed by spectrametric method.^20 The sample of culture medium were heated at 65° C. for 5.0 min to inactivate endogenous phosphatases selectively (SeAP is thermal stable). The buffer solution of 2×SeAP (100 μL, 1.0 M diethanolamine, pH 9.8; 0.50 mM MgCl2; 10 mM L-homoarginine) was added to the culture medium sample (100 μL) in a 96-well flat-bottom culture dish (Corning). Then, the substrate solution ([…], 120 mM, p-nitrophenyl phosphate dissolved in 1×SeAP buffer) was dispensed into each well containing the reaction mixture. The absorbance at wavelength 405 nm specific for the hydrolysis product was read at 2.5 min intervals at 37° C. over the course of 60 min on an EL340i microplate reader (Bio-tek Instruments) with 5 s automatic shaking before each reading.
Two plasmid constructs^19 were used to test the effect of synthesized NDGA derivatives on Tat-regulated HIV transactivation as described previously.^12,13,19 The plasmid constructs included a cytomegalovirus (CMV) promoter driven tat gene and SP1 regulated HIV LTR promoter driven reporter gene (i.e., SeAP). A standard SeAP assay in the absence of drug was initially run to find out efficiency of transfection.

[2] = test system: human liver cancer line Hep3B; assay: MTT-based cytotoxicity / proliferation assay, Hep3B; assay type: cell-based
Description: The cytotoxicity of P4N against Vero cells and human cancer cells HEP3B, HT29 and MCF7 was analyzed using an MTT [3-(4,5-dimethylthiazol-2-yl)-2,5-diphenyltetrazolium bromide]-based assay (Sigma). The absorbance of OD570 was a measurement of formazon crystals solubilized in DMSO from metabolically active cells. Procedures were discussed in Huang R C C, et al. in Antiviral Res 58, 57-64 2003.^10
We have previously shown that M4N arrests tumor cells growth at G2-M phase of the cell cycle by reducing the level of Cdc2 protein and kinase activity,^17,18 and induces apoptosis by suppressing survivin gene expression and protein stability and activating the mitochondrial apoptosis pathway.^17 M4N is able to reverse the multidrug resistance by inhibiting the Sp1-regulated MDR1 gene expression and preventing the synthesis of p-glycoprotein (Pgp).^24 To investigate the effect of water soluble NDGA derivative P4N on growth of the transformed cells, four cell lines, Vero cell (African green monkey kidney cells), human liver cancer line Hep3B, colon cancer cell line HT29, and human breast cancer line MCF-7 were selected for testing. The Vero cell line is aneuploid.

[3] = test system: Sp1 cognate binding site DNA (dsOLIGOsp); assay: 1D NMR titration of the Sp1 cognate binding site; settings: FIG. 3
From the text: FIG. 3: 1D 1H NMR spectra of free DNA, free P4N and 1:1 molar ratio DNA:P4N. The resonances with the largest chemical shift perturbation are indicated
The titration of the Sp1 cognate binding site with P4N was further studied by 1D NMR (FIG. 3). […] Changes in the chemical shifts and the line-widths of both the DNA and the drug indicate structural perturbations of the DNA upon titration with P4N. […] This is reflected in the split of the well resolved resonances of the carbon-nitrogen ring CH2 protons (which lie in an area of the spectrum that is free of DNA peaks). As shown on both FIG. 3 and FIG. 4 the largest perturbations of the P4N chemical shifts induced upon binding are those of the CH3 protons, aromatic protons and the carbon-nitrogen ring CH2 protons. […] Binding of Sp1 to dsOLIGOsp and binding of P4N to dsOLIGOsp are both reversible as shown in a competitive band-shift analysis (FIG. 6).

## C[C@H](Cc1ccc(OCCN2CCCCC2)c(OCCN2CCCCC2)c1)[C@@H](C)Cc1ccc(OCCN2CCCCC2)c(OCCN2CCCCC2)c1 [Compound 5b, meso-2,3-Dimethyl-1,4-bis(3,4-[2-(piperidino)ethoxyphenyl])butane Tetrakishydrochloride Salt]
[1]; 0.10 μM
  Inhibition (%) of HIV Tat-regulated Transactivation in COS Cells: 8.7%
[1]; 0.25 μM
  Inhibition (%) of HIV Tat-regulated Transactivation in COS Cells: 4.3%
[1]; 0.50 μM
  Inhibition (%) of HIV Tat-regulated Transactivation in COS Cells: 29.0%
[1]; 1.0 μM
  Inhibition (%) of HIV Tat-regulated Transactivation in COS Cells: 56.8%
[1]; 2.5 μM
  Inhibition (%) of HIV Tat-regulated Transactivation in COS Cells: 90.6%
[1]; 5.0 μM
  Inhibition (%) of HIV Tat-regulated Transactivation in COS Cells: 97.0%
[1]; 10 μM
  Inhibition (%) of HIV Tat-regulated Transactivation in COS Cells: 99.8%
[1]; 20 μM
  Inhibition (%) of HIV Tat-regulated Transactivation in COS Cells: 100%
[1]; 40 μM
  Inhibition (%) of HIV Tat-regulated Transactivation in COS Cells: 100%
[1]; 80 μM
  Inhibition (%) of HIV Tat-regulated Transactivation in COS Cells: 100%
[1]; 100 μM
  Inhibition (%) of HIV Tat-regulated Transactivation in COS Cells: 97.7%
[1]; COS cells, SeAP, mean of triplicate determinations, read-out: IC50, HIV Tat-regulated transactivation
  IC50: 0.88 µM
[1]; ≦1 μM, FIG. 9
  HIV transactivation at the concentration without effect on cos cell growth: fully inhibited
[2]; 48 hrs, 37° C.
  IC50: 2 µM
[2]; Hep3B, FIG. 11
  Concentration that effectively eliminates growth of tumor cells: < 5 µM
[3]
  Binding to the DNA (1D NMR titration): micro-molar range
